Test results as given in publication PMC6429183, “Identification of Compounds That Inhibit Estrogen-Related Receptor Alpha Signaling Using High-Throughput Screening Assays” (Molecules, 2019).
Structures can show the parent of a compound that is named as a salt. Where two headings read alike, the source gives them in different places.

Assays:
[1] = biological target: T1, ERRα with PGC-1α (PGC/ERR pathway) (Homo sapiens, UniProt P11474)
T1 sequence (P11474 1-423): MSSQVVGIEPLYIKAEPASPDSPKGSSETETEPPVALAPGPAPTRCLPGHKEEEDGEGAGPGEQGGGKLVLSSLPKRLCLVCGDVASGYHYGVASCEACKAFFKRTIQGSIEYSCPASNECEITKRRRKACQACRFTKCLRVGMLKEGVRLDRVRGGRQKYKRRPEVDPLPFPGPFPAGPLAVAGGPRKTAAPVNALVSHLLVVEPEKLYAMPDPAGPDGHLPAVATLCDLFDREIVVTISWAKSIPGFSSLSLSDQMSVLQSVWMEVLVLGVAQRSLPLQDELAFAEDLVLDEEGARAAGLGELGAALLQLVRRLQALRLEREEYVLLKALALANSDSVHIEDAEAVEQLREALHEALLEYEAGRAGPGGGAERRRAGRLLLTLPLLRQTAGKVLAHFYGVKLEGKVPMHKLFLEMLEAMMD

[2] = biological target: T2, estrogen-related receptor alpha (ERRα) (Homo sapiens, UniProt P11474)
T2 sequence (P11474 1-423): T1 sequence (P11474 1-423)

[3] = biological target: T2, estrogen-related receptor alpha (ERRα); experiment: ERR reporter (luciferase) antagonist qHTS assay, ERR-HEK293; conditions: for EC50: mean ± SD, triplicate; for ERR-HEK293 Follow-Up Efficacy: follow-up screen; for ERR-HEK293 Follow-Up Efficacy / ERR-HEK293 Primary Efficacy: relative to XCT790 = −100%; for ERR-HEK293 Primary Efficacy: primary qHTS, DMSO = 0%
[4] = tested on: PGC/ERR reporter HEK293 cells; experiment: CellTiter-Fluor cell viability assay multiplexed with PGC/ERR reporter assay; type: cell-based; conditions: for PGC/ERR-HEK293 Follow-Up Viability EC50: follow-up screen; for PGC/ERR-HEK293 Primary Viability EC50: primary qHTS
Experimental: (§1) ERR or PGC/ERR reporter HEK293 cells suspended in culture medium without puromycin were dispensed at 2500 cells/5 μL/well in tissue culture–treated 1536-well white assay plates (Greiner Bio-One North America, Monroe, NC, USA) using a Thermo Scientific Multidrop Combi (ThermoFisher Scientific, Inc.). […] After the cells were incubated at 37 °C with 5% CO2 for 6 h, 23 nL of compounds or control, XTC790, was transferred into the assay plates using a Wako Pintool station (Wako Automation, San Diego, CA, USA). The assay plates were incubated at 37 °C for 18 h, followed by the addition of 5 μL ONE-Glo luciferase reagent (Promega, Madison, WI, USA) using a Flying Reagent Dispenser (Aurora Discovery, Carlsbad, CA, USA). After 30 min of incubation at room temperature, the luminescence intensity of the assay plates was quantified using a ViewLux plate reader (PerkinElmer, Shelton, CT, USA). The assays were performed three times for each compound concentration. These ERR and PGC/ERR reporter assays were multiplexed with the CellTiter-Fluor Cell Viability Assay (Promega), a fluorescence-based cell viability assay, to assess compound cytotoxicity.
The qHTS data were analyzed as described previously. Each titration point was normalized relative to the positive control compound (XCT790 = −100%) and DMSO-only wells (0%) according to the following equation: % Activity = [(Vcompound − VDMSO)/(VDMSO − Vpos)] × 100, where Vcompound denotes the compound well values, Vpos denotes the median value of the positive control wells, and VDMSO denotes the median values of the DMSO-only wells. The DMSO-only compound plates at the beginning and end of the compound plate stack were used to correct the data set by applying an in-house pattern correction algorithm. The half maximum inhibition values (IC50) for each compound and maximum response (efficacy) values were obtained by fitting the concentration-response curves of each compound to a four-parameter Hill equation [91]. Compounds were designated as Class 1–4 according to the type of concentration–response curve observed. For each reading, the activity outcome of a test compound was first categorized by the average curve rank from the triplicate runs and the reproducibility calls. The final activity outcome of each compound was based on the ERR antagonist readout activity and cell viability counter screen.

[5] = tested on: ERR reporter HEK293 cells; experiment: CellTiter-Fluor cell viability assay multiplexed with ERR reporter assay; type: cell-based; conditions: for ERR-HEK293 Primary Viability EC50: primary qHTS, viability counter screen
Experimental: as §1
The qHTS data were analyzed as described previously. […] The DMSO-only compound plates at the beginning and end of the compound plate stack were used to correct the data set by applying an in-house pattern correction algorithm. The half maximum inhibition values (IC50) for each compound and maximum response (efficacy) values were obtained by fitting the concentration-response curves of each compound to a four-parameter Hill equation [91]. […] For each reading, the activity outcome of a test compound was first categorized by the average curve rank from the triplicate runs and the reproducibility calls. The final activity outcome of each compound was based on the ERR antagonist readout activity and cell viability counter screen.

[6] = biological target: T1, ERRα with PGC-1α (PGC/ERR pathway); experiment: PGC/ERR reporter (luciferase) qHTS assay, PGC/ERR-HEK293
cytochrome c = experiment: qRT-PCR mRNA expression of ERR downstream gene cytochrome c; type: cell-based; conditions: 3 µM; ERR reporter cells; vs GAPDH, DMSO = 0%
Experimental: (§2) Total RNA was isolated from treated ERR reporter cells using an RNeasy Mini Kit (Qiagen, Germantown, MD, USA), homogenized using a QIAshredder (Qiagen), and reverse transcribed with a High-Capacity RNA-to-cDNA™ Kit (ThermoFisher Scientific, Inc.) following the manufacturers’ instructions. Expression of ERRα, COX8α, IDH3α, PPARα, COX4I1, and cytochrome c genes was normalized against GAPDH. All primers were purchased from ThermoFisher Scientific, Inc. Real-time PCR assays were performed in 384-well plates on a QuantStudio 5 (Applied Biosystems, Foster City, CA, USA) with TaqMan™ Gene Expression Master Mix (ThermoFisher Scientific, Inc.). Induction values were calculated using the equation: Fold = 2^ΔΔCt, where ΔCt represents the differences in cycle threshold numbers between each of the target genes and GAPDH, and ΔΔCt represents the relative change in these differences between control and treatment groups. Experimental data are presented as a mean of triplicate determinations ± SD. Statistical comparisons were made by t-test, while the statistical significance was set at p values of <0.05 (light blue), <0.01 (medium blue), and <0.001 (dark blue).

IDH3α = experiment: qRT-PCR mRNA expression of ERR downstream gene IDH3α; type: cell-based; conditions: ERR reporter cells, vs GAPDH, DMSO = 0%
Experimental: as §2

COX8α = experiment: qRT-PCR mRNA expression of ERR downstream gene COX8α; type: cell-based; conditions: ERR reporter cells, vs GAPDH, DMSO = 0%
Experimental: as §2

[7] = ERR-HEK293 Follow-Up EC50, follow-up (confirmation) screen
[8] = ERR-HEK293 Primary EC50, primary qHTS, 18 h, 15 concentrations
[9] = PGC/ERR-HEK293 Follow-Up EC50, follow-up screen, mean ± SD, triplicate
[10] = PGC/ERR-HEK293 Primary EC50, primary qHTS, 18 h, mean ± SD, triplicate

Row | Compound | EC50 [3, 7] | EC50 [3, 8] | PGC/ERR-HEK293 Follow-Up Viability EC50 [4] | PGC/ERR-HEK293 Primary Viability EC50 [4] | ERR-HEK293 Primary Viability EC50 [5] | EC50 [6, 9] | EC50 [6, 10] | ERR-HEK293 Follow-Up Efficacy [3] | ERR-HEK293 Primary Efficacy [3] | ERR-HEK293 Follow-Up Viability EC50 ([5]; follow-up screen, viability) | further results
1 | CO/C=C(/C(=O)OC)c1ccccc1COc1cccc(C(F)(F)F)n1 [Picoxystrobin] | 3.42 ± 0.393 µM | 0.807 ± 0.279 µM | Inactive | Inactive | Inactive | 4.19 ± 2.97 µM | 2.79 ± 2.4 µM |  |  |  | PGC/ERR-HEK293 Follow-Up Efficacy [1]: −43.6 ± 14.2%; PGC/ERR-HEK293 Primary Efficacy [1]: −44.2 ± 4.37%; ERR-HEK293 Follow-Up Efficacy [2]: −86.7 ± 15.8%; ERR-HEK293 Primary Efficacy [2]: −83.9 ± 10.6%; EC50 ([5]; Homo sapiens, HEK293, follow-up screen, viability, read-out: ERR-HEK293 Follow-Up Viability EC50 (converted)): 32.1 µM
2 | Nc1ccc2cc3ccc(N)cc3nc2c1 [Proflavin hemisulfate] |  |  |  |  |  |  |  |  |  |  | Percent inhibition of mRNA gene expression, Cytochrome C (cytochrome c): 20.6 ± 8.69%; Percent inhibition of mRNA gene expression, IDH3α (IDH3α; 3 µM): 24.9 ± 20.6%; Percent inhibition of mRNA gene expression, COX8α (COX8α; 3 µM): 34.8 ± 26.7%
3 | CC[C@@]1(O)C(=O)OCc2c1cc1n(c2=O)Cc2cc3c(CN(C)C)c(O)ccc3nc2-1 [Topotecan hydrochloride] | 0.722 ± 0.285 µM | 1.24 ± 0.0837 µM | Inactive | Inactive | Inactive | 5.26 µM | 14.1 ± 1.15 µM | −140 ± 24.4% | −127 ± 11.8% | Inactive | ERR-HEK293 Primary Efficacy ([3]; listed as topotecan): −127%; PGC/ERR-HEK293 Follow-Up Efficacy ([6]; follow-up screen, negative = antagonism, positive = agonism): −78.8 ± 7.20%; PGC/ERR-HEK293 Primary Efficacy ([6]; primary qHTS, negative = antagonism, positive = agonism): −69.1 ± 5.82%
4 | CON=C(C(=O)OC)c1ccccc1CON=C(C)c1cccc(C(F)(F)F)c1 [Trifloxystrobin] |  |  |  |  |  |  |  |  |  |  | Percent inhibition of mRNA gene expression, IDH3α (IDH3α; 0.5 µM): 10.4 ± 0.21%; Percent inhibition of mRNA gene expression, COX8α (COX8α; 0.5 µM): 38.4 ± 17.2%
5 | O=c1[nH]c(=O)n([C@H]2C[C@H](O)[C@@H](CO)O2)cc1C(F)(F)F [Trifluridine] | 1.75 ± 0.314 µM | 0.875 ± 0.0593 µM | Inactive Inactive | Inactive Inactive | Inactive |  |  | −67.7 ± 6.20% | −51.8 ± 5.77% | Inactive | PGC/ERR-HEK293 Follow-Up EC50 ([6]; follow-up screen, mean ± SD, triplicate): Inactive Inactive; PGC/ERR-HEK293 Primary EC50 ([6]; primary qHTS, 18 h, mean ± SD, triplicate): Inactive Inactive; Percent inhibition of mRNA gene expression, COX8α (COX8α; 1 µM): 43.2 ± 21.8%
